# Key:
# CD14 = CD14 gene expression by qPCR in NHEK; type: cell-based, human; details: for CD14 mRNA expression (Mean): 10 nM pimecrolimus; for CD14 mRNA expression (Means of N = 3): Example 6, 10 nM Pimecrolimus, 1 nM 1,25D3
# Procedure: (§1) To assess the effect of pimecrolimus on the innate immune response of the epidermis, cultures of normal human keratinocytes (NHEK) are stimulated with a combination of a concentration of 10 nM pimecrolimus and of 1 nM 1.25D3. Gene expression of TLR1, TLR2, TLR4, TLR6 and CD14 are evaluated by qPCR. For CD14 protein expression, a Western Blot is performed and bands are quantified by densitometry using lmagej. Vehicle treated keratinocytes serve as controls. Cathelicidin protein expression is evaluated by immunofluorescence staining.
# (§2) To assess the effect of pimecrolimus on the innate immune response of the epidermis, cultures of normal human keratinocytes (NHEK) are stimulated with a concentration of 10 nM pimecrolimus,1 nM 1.25 D3, 0.1 μg/ml TLR2/6 ligand Malp-2 or their combination. Expression of cathelicidin, CD14 and TLR2 mRNA normal human keratinocytes is measured and evaluated accordingly to the procedures as detailed in Example 2 above.
# (§3) To assess the effect of time dependent effects of pimecrolimus on the innate immune response of the epidermis, cultures of normal human keratinocytes (NHEK) are stimulated with 10 nM Pimecrolimus and low dose calciferol (1,25D3) 1 nM for different time points. mRNA expression of cathelicidin, CD14 and TLR2 is analyzed by qPCR.
# HBD3 = HBD3 expression in normal human keratinocytes (NHEK); type: cell-based; parameters: unit not given here; details: Example 2
# Procedure: (§4) To assess the effect of pimecrolimus on the innate immune response of the epidermis, cultures of normal human keratinocytes (NHEK) are stimulated with combinations of a concentration of 10 nM pimecrolimus, 1 μg/ml TLR 2/CD14 ligand—peptidoglycan (PGN), 10 μg/ml lipoteichoic acid (LTA), 2 0.1 μg/ml TLR 2/6 ligand—Malp-, and/or 0.1 μg/ml TLR 4/CD14 ligand—lipopolysaccharide (LPS). Expression of cathelicidin mRNA (Table 3) and protein as well as Human Beta Defensin (HBD) 2 (Table 4) and HBD3 (Table 5) expression in normal human keratinocytes is measured.
# [1] = system: Human Beta Defensin (HBD) 2; assay: HBD2 expression in normal human keratinocytes (NHEK); type: cell-based; parameters: unit not given here; details: Example 2
# Procedure: as §4
# [2] = system: Staphylococcus aureus ΔmprF; assay: Growth of S. aureus ΔmprF (OD600) mixed with lysates of stimulated normal human keratinocytes; type: cell-based; details: for Bacterial growth OD600 (Mean): S. aureus + lysates of NHEK stimulated with 10 nM pimecrolimus, 1 nM 1.25D3 or combination, 37° C.
# Procedure: (§5) To assess the effect of pimecrolimus on the innate immune response of the epidermis against bacteria, cultures of normal human keratinocytes (NHEK) are stimulated with a concentration of 10 nM pimecrolimus, 1 nM 1.25D3 (active 1.25 D-hydroxy calciferol) or their combination. Cells are lysed via sonication 20 minutes in an ice bath, after which cell lysates were mixed with Staphylococcus aureus ΔmprF cultures and incubated at 37° C. Bacterial growth over time is monitored by OD600 (Table 1). To determine if Pimecrolimus alone was able to kill Staphylococcus aureus ΔmprF, Pimecrolimus in a concentration of 10 nM is co-incubated with Staphylococcus aureus ΔmprF cultures and incubated at 37° C. (Table 2). Bacterial growth is monitored by OD600 (*: p<0.05; **: p<0.01; Student's t-test).
# TLR2 = TLR2 gene expression by qPCR in NHEK; type: cell-based, human; details: for TLR2 mRNA expression (Mean): 10 nM pimecrolimus; for TLR2 mRNA expression (Means of N = 3): Example 6, 10 nM Pimecrolimus, 1 nM 1,25D3; for TLR2 gene expression (Mean): Example 8, 24 hours
# Procedure: as §1, §2, §3
# To assess the effect of calciferol on varying levels of pimecrolimus on the innate immune response of the epidermis, cultures of normal human keratinocytes (NHEK) are stimulated with 0.01 nM, 0.1 nM, 1 nM and 10 nM concentrations of pimecrolimus with or without 1 nM concentrations of calciferol for 24 hours. Expression of cathelicidin mRNA and gene expression of TLR2 is measured and evaluated accordingly to the procedures as detailed in Example 2 above.
# TLR6 = TLR6 gene expression by qPCR in NHEK; type: cell-based, human; details: Example 3; 10 nM pimecrolimus, 1 nM 1.25D3
# Procedure: as §1
# [3] = system: Staphylococcus aureus ΔmprF; assay: Direct co-incubation of Pimecrolimus with S. aureus ΔmprF cultures (OD600); type: cell-based; details: for Bacterial growth OD600 (Mean): 10 nM Pimecrolimus co-incubated with S. aureus, no keratinocyte lysate, 37° C.
# Procedure: as §5
# [4] = Example 4, 1 nM 1.25 D3, 0.1 μg/ml Malp-2 or combination
# [5] = in the presence of low dose 1,25D3 and Malp-2
# [6] = with 10 nM Pimecrolimus + 0.1 μg/ml LPS
# [7] = with 10 nM Pimecrolimus + 0.1 μg/ml Malp-2
# [8] = with 10 nM Pimecrolimus + 1 μg/ml PGN
# [9] = with 10 nM Pimecrolimus + 10 μg/ml LTA
# [10] = with 10 nM Pimecrolimus, no TLR ligand (control row)
smiles,measurement,setting,value
"CC[C@@H]1/C=C(\C)C[C@H](C)C[C@H](OC)[C@H]2O[C@@](O)(C(=O)C(=O)N3CCCC[C@H]3C(=O)O[C@H](/C(C)=C/[C@@H]3CC[C@H](Cl)[C@H](OC)C3)[C@H](C)[C@@H](O)CC1=O)[C@H](C)C[C@@H]2OC [Pimecrolimus, pimecrolimus]",CD14 mRNA expression (Mean),"CD14; Example 3, 1 nM 1.25D3",2.07
same,CD14 mRNA expression (Mean),CD14; [4],2.07
same,CD14 mRNA expression (Means of N = 3),CD14; 0 h,1.54
same,CD14 mRNA expression (Means of N = 3),CD14; 8 h,1.46
same,CD14 mRNA expression (Means of N = 3),CD14; 24 h,2.10
same,CD14 mRNA expression (Means of N = 3),CD14; 48 h,1.04
same,"Effect on 1,25D3-induced CD14 mRNA expression (in words)",CD14; after 8 hours of treatment,suppressed
same,"Effect on 1,25D3-induced CD14 mRNA expression (in words)",CD14; after 24 hours,enhanced
same,CD14 expression (in words),CD14; [5],increasing
same,HBD3 expression (Mean),HBD3; [6],1.06
same,HBD3 expression (Mean),HBD3; [7],28.59
same,HBD3 expression (Mean),HBD3; [8],1.24
same,HBD3 expression (Mean),HBD3; [9],0.72
same,HBD3 expression (Mean),HBD3; [10],0.72
same,HBD2 expression (Mean),[1]; [6],1.34
same,HBD2 expression (Mean),[1]; [7],867.92
same,HBD2 expression (Mean),[1]; [8],0.51
same,HBD2 expression (Mean),[1]; [9],1.77
same,HBD2 expression (Mean),[1]; [10],6.53
same,Bacterial growth OD600 (Mean),[2]; 0 h,0.2253
same,Bacterial growth OD600 (Mean),[2]; 2 h,0.2557
same,Bacterial growth OD600 (Mean),[2]; 4 h,0.2807
same,Bacterial growth OD600 (Mean),[2]; 5 h,0.343
same,Bacterial growth OD600 (Mean),[2]; 6 h,0.4507
same,Bacterial growth OD600 (Mean),[2]; 8 h,0.6843
same,Antimicrobial effect of keratinocytes against S. aureus ΔmprF (in words),[2]; summary of Table 1,increases the ability of keratinocytes to kill Staphylococcus aureus ΔmprF
same,TLR2 mRNA expression (Mean),"TLR2; Example 3, 1 nM 1.25D3",1.80
same,TLR2 mRNA expression (Mean),TLR2; [4],0.29
same,TLR2 mRNA expression (Means of N = 3),TLR2; 0 h,1.00
same,TLR2 mRNA expression (Means of N = 3),TLR2; 8 h,0.64
same,TLR2 mRNA expression (Means of N = 3),TLR2; 24 h,1.31
same,TLR2 mRNA expression (Means of N = 3),TLR2; 48 h,1.51
same,TLR2 gene expression (Mean),TLR2; 0.01 nM PIM with 1 nM 1.25D3,0.82
same,TLR2 gene expression (Mean),"TLR2; 0.01 nM PIM, no 1.25D3",0.73
same,TLR2 gene expression (Mean),TLR2; 0.1 nM PIM with 1 nM 1.25D3,0.57
same,TLR2 gene expression (Mean),"TLR2; 0.1 nM PIM, no 1.25D3",0.59
same,TLR2 gene expression (Mean),TLR2; 1 nM PIM with 1 nM 1.25D3,1.07
same,TLR2 gene expression (Mean),"TLR2; 1 nM PIM, no 1.25D3",0.98
same,TLR2 gene expression (Mean),TLR2; 10 nM PIM with 1 nM 1.25D3,3.94
same,TLR2 gene expression (Mean),"TLR2; 10 nM PIM, no 1.25D3",1.80
same,TLR2 expression (in words),TLR2; [5],increasing
same,TLR6 mRNA expression (Mean),TLR6,4.40
same,Bacterial growth OD600 (Mean),[3]; 0 h,0.3083
same,Bacterial growth OD600 (Mean),[3]; 2 h,0.3387
same,Bacterial growth OD600 (Mean),[3]; 4 h,0.4157
same,Bacterial growth OD600 (Mean),[3]; 5 h,0.4333
same,Bacterial growth OD600 (Mean),[3]; 6 h,0.4227
same,Bacterial growth OD600 (Mean),[3]; 8 h,0.601
same,Direct antimicrobial effect (in words),[3]; summary of Table 2,does not have an antimicrobial effect by itself
